Experimental findings from BindingDB's records for PubMed 8996185 (SynthÉLabo Recherche, 1997) are described below.

The target in experiment [1] is T1, Type-2 angiotensin II receptor (Rattus norvegicus, UniProt P35351).
T1 sequence (P35351 whole entry): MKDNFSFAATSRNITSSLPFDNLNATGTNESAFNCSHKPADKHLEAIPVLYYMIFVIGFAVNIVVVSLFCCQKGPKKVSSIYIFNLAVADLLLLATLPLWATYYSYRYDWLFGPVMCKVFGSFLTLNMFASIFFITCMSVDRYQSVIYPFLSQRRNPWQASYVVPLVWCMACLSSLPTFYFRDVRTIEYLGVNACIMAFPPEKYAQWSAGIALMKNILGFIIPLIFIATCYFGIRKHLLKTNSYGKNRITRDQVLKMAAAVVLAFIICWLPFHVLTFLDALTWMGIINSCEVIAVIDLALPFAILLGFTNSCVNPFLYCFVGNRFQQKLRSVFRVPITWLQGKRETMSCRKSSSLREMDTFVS

Experiment [2] concerns the target Nischarin (Rattus norvegicus, UniProt Q4G017).
Experiment [3] addresses Beta-2 adrenergic receptor (Rattus norvegicus, UniProt P10608).
Experiment [4] concerns the target Adenosine receptor A2a (Rattus norvegicus, UniProt P30543).
For experiment [5], the target named is Glutamate receptor ionotropic, kainate 1 (Rattus norvegicus, UniProt P22756).
The target in experiment [6] is T2, Adenosine receptor A1 (Rattus norvegicus, UniProt P25099).
T2 sequence (P25099 whole entry): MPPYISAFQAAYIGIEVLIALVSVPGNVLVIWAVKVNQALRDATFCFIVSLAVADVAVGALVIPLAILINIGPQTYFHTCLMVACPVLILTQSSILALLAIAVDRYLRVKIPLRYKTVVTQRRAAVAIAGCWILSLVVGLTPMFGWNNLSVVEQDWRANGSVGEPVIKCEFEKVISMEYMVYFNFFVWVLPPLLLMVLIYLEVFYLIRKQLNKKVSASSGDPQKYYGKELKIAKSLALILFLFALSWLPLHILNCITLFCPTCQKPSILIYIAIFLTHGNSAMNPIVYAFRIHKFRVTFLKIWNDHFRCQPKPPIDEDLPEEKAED

Experiment [7] deals with 5-hydroxytryptamine receptor 4 (Cavia porcellus, UniProt O70528).
Experiment [8] addresses T3, Glycine amidinotransferase, mitochondrial (Rattus norvegicus, UniProt P50442).
T3 sequence (P50442 whole entry): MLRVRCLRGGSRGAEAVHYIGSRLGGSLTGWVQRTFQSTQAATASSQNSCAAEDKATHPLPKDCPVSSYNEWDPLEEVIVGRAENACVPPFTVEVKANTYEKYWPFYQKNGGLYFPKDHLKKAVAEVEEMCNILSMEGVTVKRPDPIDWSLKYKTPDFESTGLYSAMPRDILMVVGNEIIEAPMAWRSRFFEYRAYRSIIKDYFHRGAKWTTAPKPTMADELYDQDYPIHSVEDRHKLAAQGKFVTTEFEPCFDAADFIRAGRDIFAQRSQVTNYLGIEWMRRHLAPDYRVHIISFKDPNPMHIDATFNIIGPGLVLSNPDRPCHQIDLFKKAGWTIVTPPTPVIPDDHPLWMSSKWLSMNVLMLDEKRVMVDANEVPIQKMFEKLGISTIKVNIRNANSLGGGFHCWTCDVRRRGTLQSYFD

Experiment [9] deals with 5-hydroxytryptamine receptor 3A (Rattus norvegicus, UniProt P35563).
The target of experiment [10] is Glutamate receptor 3 (Rattus norvegicus, UniProt P19492).
Experiment [11] concerns the target T4, Type-1 angiotensin II receptor (Oryctolagus cuniculus, UniProt P34976).
T4 sequence (P34976 whole entry): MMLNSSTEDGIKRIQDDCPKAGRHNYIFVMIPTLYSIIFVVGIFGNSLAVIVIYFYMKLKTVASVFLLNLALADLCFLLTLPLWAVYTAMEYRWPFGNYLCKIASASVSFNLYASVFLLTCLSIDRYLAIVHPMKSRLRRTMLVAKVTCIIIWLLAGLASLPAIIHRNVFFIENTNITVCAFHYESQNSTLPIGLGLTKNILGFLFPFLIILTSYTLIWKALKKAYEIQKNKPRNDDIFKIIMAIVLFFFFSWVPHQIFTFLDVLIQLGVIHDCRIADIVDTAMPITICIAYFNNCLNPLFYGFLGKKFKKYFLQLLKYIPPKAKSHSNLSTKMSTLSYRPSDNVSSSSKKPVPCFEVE

For experiment [12], the target named is T5, Glycine receptor subunit alpha-1 (Rattus norvegicus, UniProt P07727).
T5 sequence (P07727 whole entry): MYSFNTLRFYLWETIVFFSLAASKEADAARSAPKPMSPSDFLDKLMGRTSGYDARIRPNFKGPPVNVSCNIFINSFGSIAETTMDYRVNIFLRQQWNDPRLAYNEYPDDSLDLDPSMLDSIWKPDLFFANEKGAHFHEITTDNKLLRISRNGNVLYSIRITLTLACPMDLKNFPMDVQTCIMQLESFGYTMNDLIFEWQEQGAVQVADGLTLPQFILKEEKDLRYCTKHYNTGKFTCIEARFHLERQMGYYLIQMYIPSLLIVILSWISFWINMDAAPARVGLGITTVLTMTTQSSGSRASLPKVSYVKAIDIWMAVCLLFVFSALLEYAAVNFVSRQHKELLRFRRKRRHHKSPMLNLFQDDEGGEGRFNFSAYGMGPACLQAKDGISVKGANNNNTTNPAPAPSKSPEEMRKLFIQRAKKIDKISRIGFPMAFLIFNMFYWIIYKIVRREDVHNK

In experiment [13] the target is Gamma-aminobutyric acid type B receptor subunit 1 (UniProt Q9Z0U4).
In experiment [14] the target is D(3) dopamine receptor (Bos taurus, UniProt F1N454).
In experiment [15] the target is Sigma non-opioid intracellular receptor 1 (Mus musculus, UniProt O55242).
Experiment [16] deals with Voltage-dependent L-type calcium channel subunit alpha-1C (Rattus norvegicus, UniProt P22002).
For experiment [17], the target named is Glutamate receptor ionotropic, NMDA 1 (Rattus norvegicus, UniProt P35439).
Experiment [18] concerns the target 5-hydroxytryptamine 1D receptor (Bos taurus, UniProt Q8MI13).
For experiment [19], the target named is 5-hydroxytryptamine receptor 1A (Rattus norvegicus, UniProt P19327).
The target of experiment [20] is 5-hydroxytryptamine receptor 1B (Rattus norvegicus, UniProt P28564).
Experiment [21] deals with Alpha-1B adrenergic receptor (Rattus norvegicus, UniProt P15823).
For experiment [22], the target named is D(2) dopamine receptor (Rattus norvegicus, UniProt P61169).
The target of experiment [23] is Sodium-dependent dopamine transporter (Rattus norvegicus, UniProt P23977).
In experiment [24] the target is 5-hydroxytryptamine receptor 2A (Rattus norvegicus, UniProt P14842).
Experiment [25] addresses Muscarinic acetylcholine receptor M2 (Rattus norvegicus, UniProt P10980).
Experiment [26] deals with Sodium channel protein type 10 subunit alpha (Rattus norvegicus, UniProt Q62968).
Experiment [27] addresses Gamma-aminobutyric acid receptor subunit alpha-1 (Rattus norvegicus, UniProt P62813).
Experiment [28] deals with Alpha-2C adrenergic receptor (Rattus norvegicus, UniProt P22086).
For experiment [29], the target named is Histamine H1 receptor (Cavia porcellus, UniProt P31389).
Experiment [30] addresses Gamma-aminobutyric acid (GABA) B receptor 1 (Rattus norvegicus, UniProt Q6MFX8).
Experiment [31] has as its target 5-hydroxytryptamine receptor 2C (Sus scrofa, UniProt G7ZKZ7).

The Ki is the dissociation constant of the complex between target and ligand, obtained from inhibition or displacement.

“And” between values parts separate entries of the source, which are not always exact repeats. Equal values may be shown once. Where a name gives a salt, the structure may show the parent alone. Where only a bound is given, the exact number is not on record here.

Beta-2 adrenergic receptor, sequence (P10608 whole entry): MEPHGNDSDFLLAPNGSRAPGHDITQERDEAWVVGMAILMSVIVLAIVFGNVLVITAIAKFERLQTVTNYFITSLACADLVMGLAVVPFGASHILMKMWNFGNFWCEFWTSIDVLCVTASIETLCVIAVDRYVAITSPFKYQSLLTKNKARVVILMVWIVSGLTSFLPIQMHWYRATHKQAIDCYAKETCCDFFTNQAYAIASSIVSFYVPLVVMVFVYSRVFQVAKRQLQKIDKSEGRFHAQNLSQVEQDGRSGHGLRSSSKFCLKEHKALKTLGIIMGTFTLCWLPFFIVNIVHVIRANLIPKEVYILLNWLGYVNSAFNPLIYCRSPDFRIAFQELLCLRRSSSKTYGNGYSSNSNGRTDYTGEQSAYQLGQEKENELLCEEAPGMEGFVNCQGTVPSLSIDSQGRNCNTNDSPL
Glutamate receptor ionotropic, kainate 1, sequence (P22756 whole entry): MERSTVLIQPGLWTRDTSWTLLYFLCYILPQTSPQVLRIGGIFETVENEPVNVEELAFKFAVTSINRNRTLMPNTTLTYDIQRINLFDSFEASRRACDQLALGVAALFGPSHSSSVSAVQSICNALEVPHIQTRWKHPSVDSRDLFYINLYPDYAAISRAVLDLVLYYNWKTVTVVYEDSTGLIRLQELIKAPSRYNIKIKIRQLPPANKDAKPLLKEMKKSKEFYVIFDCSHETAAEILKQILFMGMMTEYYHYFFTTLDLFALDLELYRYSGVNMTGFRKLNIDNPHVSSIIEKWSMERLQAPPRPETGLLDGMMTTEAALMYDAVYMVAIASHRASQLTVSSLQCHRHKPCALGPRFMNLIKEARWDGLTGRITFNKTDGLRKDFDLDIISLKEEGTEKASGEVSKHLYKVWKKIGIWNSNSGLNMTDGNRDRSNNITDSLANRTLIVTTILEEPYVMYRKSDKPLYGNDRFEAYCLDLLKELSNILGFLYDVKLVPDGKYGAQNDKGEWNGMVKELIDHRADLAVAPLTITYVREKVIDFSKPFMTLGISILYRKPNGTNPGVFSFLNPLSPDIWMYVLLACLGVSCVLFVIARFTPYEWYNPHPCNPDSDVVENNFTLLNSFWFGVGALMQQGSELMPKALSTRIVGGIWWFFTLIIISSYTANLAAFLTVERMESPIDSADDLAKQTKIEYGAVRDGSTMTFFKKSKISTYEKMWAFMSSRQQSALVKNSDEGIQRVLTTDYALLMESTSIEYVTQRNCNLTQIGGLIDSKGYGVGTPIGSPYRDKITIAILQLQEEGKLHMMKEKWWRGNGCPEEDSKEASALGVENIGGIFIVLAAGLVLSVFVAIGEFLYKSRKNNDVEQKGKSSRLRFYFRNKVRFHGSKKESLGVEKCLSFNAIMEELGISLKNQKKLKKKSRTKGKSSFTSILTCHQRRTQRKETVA
5-hydroxytryptamine receptor 4, sequence (O70528 whole entry): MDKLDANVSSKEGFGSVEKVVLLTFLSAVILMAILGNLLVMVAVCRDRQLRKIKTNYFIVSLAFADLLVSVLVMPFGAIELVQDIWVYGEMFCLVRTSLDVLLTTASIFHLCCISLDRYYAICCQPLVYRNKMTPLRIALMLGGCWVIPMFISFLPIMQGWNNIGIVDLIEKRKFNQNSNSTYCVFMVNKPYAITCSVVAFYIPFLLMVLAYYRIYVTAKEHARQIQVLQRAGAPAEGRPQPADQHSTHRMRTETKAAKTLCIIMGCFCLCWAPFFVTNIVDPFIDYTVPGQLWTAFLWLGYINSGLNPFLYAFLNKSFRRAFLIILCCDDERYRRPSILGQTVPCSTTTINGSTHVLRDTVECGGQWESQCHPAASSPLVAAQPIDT
Adenosine receptor A2a, sequence (P30543 whole entry): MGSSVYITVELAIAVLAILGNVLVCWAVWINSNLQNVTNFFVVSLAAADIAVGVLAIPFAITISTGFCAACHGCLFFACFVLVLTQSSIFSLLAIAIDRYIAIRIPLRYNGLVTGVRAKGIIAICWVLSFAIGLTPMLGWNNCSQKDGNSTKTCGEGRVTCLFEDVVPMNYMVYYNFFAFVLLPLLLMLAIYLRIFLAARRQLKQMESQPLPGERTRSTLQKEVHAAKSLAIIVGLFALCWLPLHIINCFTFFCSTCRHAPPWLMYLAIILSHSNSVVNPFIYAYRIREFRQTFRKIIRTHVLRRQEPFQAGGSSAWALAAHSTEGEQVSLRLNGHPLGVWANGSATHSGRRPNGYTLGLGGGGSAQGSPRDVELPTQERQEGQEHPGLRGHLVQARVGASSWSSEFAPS
Nischarin, sequence (Q4G017 whole entry): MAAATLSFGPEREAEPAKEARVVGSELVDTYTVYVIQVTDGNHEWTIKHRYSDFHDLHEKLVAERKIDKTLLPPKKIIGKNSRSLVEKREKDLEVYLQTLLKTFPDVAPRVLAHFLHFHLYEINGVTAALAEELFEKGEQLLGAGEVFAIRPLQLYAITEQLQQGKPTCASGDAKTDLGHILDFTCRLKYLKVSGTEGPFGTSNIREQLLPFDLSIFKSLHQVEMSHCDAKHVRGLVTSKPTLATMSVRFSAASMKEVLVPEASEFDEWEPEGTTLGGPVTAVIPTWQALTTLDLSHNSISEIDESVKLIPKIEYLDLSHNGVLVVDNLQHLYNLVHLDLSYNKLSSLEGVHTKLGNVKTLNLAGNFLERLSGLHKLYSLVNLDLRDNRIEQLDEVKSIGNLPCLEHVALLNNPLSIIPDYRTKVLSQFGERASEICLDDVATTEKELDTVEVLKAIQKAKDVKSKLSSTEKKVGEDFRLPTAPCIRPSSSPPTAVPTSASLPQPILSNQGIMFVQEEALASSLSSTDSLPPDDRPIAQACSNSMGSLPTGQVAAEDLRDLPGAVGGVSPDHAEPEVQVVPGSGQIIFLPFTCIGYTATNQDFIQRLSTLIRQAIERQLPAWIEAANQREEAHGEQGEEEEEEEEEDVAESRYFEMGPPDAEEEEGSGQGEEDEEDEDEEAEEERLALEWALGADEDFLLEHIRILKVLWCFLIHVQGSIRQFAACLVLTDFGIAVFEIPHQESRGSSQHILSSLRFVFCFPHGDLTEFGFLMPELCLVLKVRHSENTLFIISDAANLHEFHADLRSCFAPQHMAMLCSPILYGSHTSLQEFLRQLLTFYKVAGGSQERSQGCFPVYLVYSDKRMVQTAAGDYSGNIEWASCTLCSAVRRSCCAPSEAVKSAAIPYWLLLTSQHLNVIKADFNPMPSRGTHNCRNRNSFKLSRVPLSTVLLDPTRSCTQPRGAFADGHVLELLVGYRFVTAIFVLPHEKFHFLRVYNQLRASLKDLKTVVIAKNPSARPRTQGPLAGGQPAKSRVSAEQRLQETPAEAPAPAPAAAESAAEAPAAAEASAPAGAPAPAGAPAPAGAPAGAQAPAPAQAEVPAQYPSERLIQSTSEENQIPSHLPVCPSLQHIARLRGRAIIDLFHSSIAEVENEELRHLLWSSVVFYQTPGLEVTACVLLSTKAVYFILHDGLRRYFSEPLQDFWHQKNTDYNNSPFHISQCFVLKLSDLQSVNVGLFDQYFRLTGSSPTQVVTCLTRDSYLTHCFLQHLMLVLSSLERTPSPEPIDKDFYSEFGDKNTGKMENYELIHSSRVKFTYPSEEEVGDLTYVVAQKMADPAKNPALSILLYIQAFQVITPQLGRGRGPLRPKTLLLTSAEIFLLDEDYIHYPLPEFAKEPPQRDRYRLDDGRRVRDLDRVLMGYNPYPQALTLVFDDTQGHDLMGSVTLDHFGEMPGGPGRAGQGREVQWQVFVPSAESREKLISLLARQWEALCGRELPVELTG
Glutamate receptor 3, sequence (P19492 whole entry): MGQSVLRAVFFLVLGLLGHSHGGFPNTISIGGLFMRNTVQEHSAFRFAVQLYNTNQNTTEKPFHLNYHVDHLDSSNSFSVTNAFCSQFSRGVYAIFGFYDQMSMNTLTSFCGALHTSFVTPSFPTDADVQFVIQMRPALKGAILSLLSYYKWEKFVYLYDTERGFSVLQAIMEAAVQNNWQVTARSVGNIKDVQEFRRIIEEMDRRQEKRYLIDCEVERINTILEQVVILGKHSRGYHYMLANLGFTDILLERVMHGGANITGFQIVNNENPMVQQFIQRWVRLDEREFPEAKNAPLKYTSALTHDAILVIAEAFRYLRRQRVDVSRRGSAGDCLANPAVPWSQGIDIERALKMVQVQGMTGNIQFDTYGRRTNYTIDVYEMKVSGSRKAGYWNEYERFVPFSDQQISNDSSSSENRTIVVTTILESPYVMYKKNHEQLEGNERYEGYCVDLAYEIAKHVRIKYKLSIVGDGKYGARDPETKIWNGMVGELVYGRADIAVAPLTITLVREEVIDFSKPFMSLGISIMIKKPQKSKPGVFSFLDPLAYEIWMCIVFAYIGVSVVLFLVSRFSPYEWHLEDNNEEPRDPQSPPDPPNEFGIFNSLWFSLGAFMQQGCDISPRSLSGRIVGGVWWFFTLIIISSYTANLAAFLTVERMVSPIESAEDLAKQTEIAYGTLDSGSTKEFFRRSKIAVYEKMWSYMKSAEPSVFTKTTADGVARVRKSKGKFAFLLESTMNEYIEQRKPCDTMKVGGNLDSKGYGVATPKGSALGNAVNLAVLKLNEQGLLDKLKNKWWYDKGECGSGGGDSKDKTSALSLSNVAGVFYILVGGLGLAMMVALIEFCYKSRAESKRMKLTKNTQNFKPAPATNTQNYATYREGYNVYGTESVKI
D(3) dopamine receptor, sequence (F1N454 whole entry): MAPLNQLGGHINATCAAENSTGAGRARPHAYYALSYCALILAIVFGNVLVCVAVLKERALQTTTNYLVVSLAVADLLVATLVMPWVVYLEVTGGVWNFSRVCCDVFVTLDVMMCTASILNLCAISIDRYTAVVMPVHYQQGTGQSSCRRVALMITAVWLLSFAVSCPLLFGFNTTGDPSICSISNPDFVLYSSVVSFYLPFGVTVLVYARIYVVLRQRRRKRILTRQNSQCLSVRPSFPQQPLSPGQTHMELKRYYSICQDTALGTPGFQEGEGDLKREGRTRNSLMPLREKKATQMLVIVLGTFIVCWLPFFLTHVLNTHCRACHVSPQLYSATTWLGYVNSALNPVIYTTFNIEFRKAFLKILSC
5-hydroxytryptamine 1D receptor, sequence (Q8MI13 whole entry): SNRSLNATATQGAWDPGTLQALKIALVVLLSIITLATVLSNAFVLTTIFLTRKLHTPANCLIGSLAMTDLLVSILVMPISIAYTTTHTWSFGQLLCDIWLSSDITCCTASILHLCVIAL

For `O=C(CCCN1CCC(O)(c2ccc(Cl)cc2)CC1)c1ccc(F)cc1` [4-[4-(4-Chloro-phenyl)-4-hydroxy-piperidin-1-yl]-1-(4-fluoro-phenyl)-butan-1-one;propionate(HCl)], the Ki in experiment [1], in experiment [2], in [3], in experiment [4], in experiment [5] and in experiment [6] was over 10 µM in each case. Besides, the Ki in experiment [7], in [8], in [9], in experiment [10], in [11] and in [12] was over 10 µM in each case. For the same molecule, the Ki in [13] was over 10 µM.
As for `CN1CCN(C2=c3ccccc3=Nc3ccc(Cl)cc3N2)CC1` [6-chloro-10-(4-methylpiperazin-1-yl)-2,9-diazatricyclo[9.4.0.0^{3,8}]pentadeca-1,3(8),4,6,10,12,14-heptaene], the inhibitory constant (Ki) in experiment [1] is over 10 µM; in [2], over 10 µM; in [3], over 10 µM; in [14] it was 880 nM; in experiment [4] it was over 10 µM; in experiment [5] it was over 10 µM. The Ki in experiment [6] is over 10 µM; in experiment [7], over 10 µM; in experiment [8], over 10 µM; in [15], 6.4 µM; in experiment [10], over 10 µM; in experiment [16], over 10 µM. The Ki in experiment [11] is over 10 µM; in experiment [12], over 10 µM; in [17] it was > 10 µM and 5 µM; in experiment [13], over 10 µM.
Regarding `CCN1CCCC1CNC(=O)c1cc(S(=O)(=O)CC)c(N)cc1OC` (centres undefined) [NSC_2159], the Ki in experiment [1], in [18], in experiment [2], in experiment [19], in experiment [3] and in experiment [20] was over 10 µM throughout. Further, the Ki in experiment [14] is 2.9 nM; in [4], over 10 µM; in experiment [5], over 10 µM; in experiment [21], over 10 µM; in [6], over 10 µM; in experiment [22], 21 nM. Moreover, the Ki in experiment [23] is over 10 µM; in [7], over 10 µM; in experiment [8] it was over 10 µM; in [9] it was over 10 µM; in experiment [24] it was 2000 nM; in experiment [25], over 10 µM. Moreover, the Ki in experiment [15], in experiment [10], in experiment [16], in experiment [11], in [26] and in experiment [12] was over 10 µM in each case. The Ki is over 10 µM in experiment [27]; 1600 nM in [28]; over 10 µM in experiment [29]; over 10 µM in experiment [30]; over 10 µM in experiment [31]; over 10 µM in experiment [17].
